From patent US20060135569A1, “Use of benzisoselenazolone compounds against ischemic myocardial damage” (priority 2002, published 2006)
Marks after values point to notes of the source that are not given here. Values belong to the compound of their own block, whether it stands above or below them.

Legend:
[1] = biological target: T1, Na^+/Ca^2+ exchanger (Cavia porcellus, UniProt P48766); assay: Na^+/Ca^2+ exchange current (INa—Ca), whole-cell patch clamp, intracellular Na^+ overload cell model; format: cell-based, guinea pig; design: Inhibitory rate of outward INa—Ca (%) / Inhibitory rate of inward INa—Ca (%): concentration or dose not given beside the values; conditions: for inhibitory ratio on INa—Ca at −80 mV: inward current; for inhibitory ratio on INa—Ca at +50 mV: outward current; for effective concentration (significant inhibitory effect on reverse mode Na^+/Ca^2+ exchange): intracellular Na^+ overload; for selectivity of inhibition of outward versus inward INa—Ca: biphasic ion conditioning
T1 construct: endogenous in cells; host or cells: freshly isolated guinea pig ventricular myocytes
Text: 1. Establishment of Assaying Method for Biphasical Current Detection in Na^+/Ca^2+ Exchange System
Since the reverse mode of Na^+/Ca^2+ exchange process is one of the main mechanisms involving in ischemia/reperfusion insult, it is of great importance to establish cell model represented reverse mode Na^+/Ca^2+ exchange process for the development of drugs against ischemic injury. Therefore, we successfully established cell model of reverse mode Na^+/Ca^2+ exchange system by intracellular Na^+ dialysis technique, and recorded Na^+/Ca^2+ exchange currents by patch clamp experiment.
Internal solution contained certain concentration of NaCl was filled to the microcatheter, and ion exchange process between the cellular and internal solutions was conducted after whole cell currents were recorded by patch clamp. Na^+ contained in the internal solution was dialyzed into the cell; result in the high intracellular Na^+ concentration. After that, the cell was champed at a holding potential of −40 mV, then depolarized to +60 mV and followed by a conversely declining ramp stimuli at a speed of 80 mV·s^−1 and 2 s conditioning pulse, then repolarized to −100 mV with a frequency of 0.05 Hz. Under the stimulation protocol, current from outward to the inward direction was recorded by perfusing modified biphasical Tyrode solution (in which the outward and inward currents can be recorded simultaneously) with the addition of 1 mmol·L^−1 of BaCl2 and 2 mmol·L^−1 of CsCl to block K^+ channels, 1 μmol·L^−1 of verapamil to block L-type Ca^2+ channels, and 20 μmol·L^−1 of ouabain to block Na^+/K^+ ATPase, and 20 mmol·L^−1 of TEA to block potassium channels. The recorded inward currents were presented in a linear manner owing to the blockade of other time-dependent currents. With the increase of intracellular Na^+ level and prolongation of time, the reverse mode of Na^+/Ca^2+ exchange process was activated. […] Under such experimental conditioning, the maximum reverse mode current was recorded 3 min after cell crushed. No significant “run-down” was observed within the record period of 8 minutes. The inward and outward current were inhibited by 5 mmol·L^−1 of Ni^2+ treatment, and the experiment result in two current-voltage curves in the absence or presence of Ni^2+. The Ni^2+ sensitive current, also called electrophysiological Na^+/Ca^2+ exchange current (INa·Ca), was the minus result of two current-voltage curves. The reverse mode potential of INa—Ca was about −20 mV
Male guinea pigs weighting 250˜280 g provided by the Animal Center of the Chinese Academy of Medical Sciences were hammered and sacrificed. The chest was opened and the heart was removed quickly. Fatty tissue and pericardium were removed in a Ca^2+-free solution at 4° C., and heart was sequentially mounted on a Langendorff apparatus. First, the heart was perfused conversely via the aorta for 6 min with Ca^2+-free solution in order to wash out residual blood, then the heart expands and the color of it turns to pink. Then the heart was perfused with Ca^2+-free solution containing 0.1 mg/ml of pronase E, 0.5 mg/ml defatted bovine serum albumin (BSA) and 150 μM Ca^2+ for 2˜3 min, until the heart expanded and became soft. The atrium was removed, and the digested heart was minced with scissors, stirred in a beaker at 37° C. for 5˜10 min. The supernatant was diluted with Ca^2+-free solution containing 0.5 mg/ml BSA and 1.8 mM Ca^2+. The supernatant was placed at room temperature (20˜24° C.) for 1 hr and then subjected to the experiment. During the whole perfusion period, pressure was kept at 70 cmH2O and the temperature of solution was kept at 37° C. with continuously gassed with 95% O2 and 5% CO2.
Rod-shaped cells with clear striations and intact membrane were used. […]

[2] = tested on: arrhythmia caused by ischemia/reperfusion insults in anaesthetic rats; assay: Ischemia/reperfusion arrhythmia in anaesthetic rats, intravenous injection; format: in vivo, rat; conditions: rats
Text: (1) Protective Effects of the Tested Compounds on Myocardial Insults in Rats after Intravenously Injection
Arrhythmic potency induced by myocardial insults was used to assess the potential protective effect of the compounds.

[3] = tested on: isolated rat hearts subjected to ischemia-reperfusion (I/R); assay: Isolated heart subjected to ischemia/reperfusion injury (arrhythmia); conditions: 10^−6 M; isolated heart ischemia/reperfusion
Description: Based on the pre-electrophysiological cell model screening, we have compared the inhibition ratios of the outward current by reverse-transportation of Na^+/Ca^2+ exchange, and further in vitro tests on isolated rat hearts subjected to ischemia-reperfusion (I/R) were conducted. Prolongation of ventricular arrhythmic, incidence rate of ventricular extrasystole, ventricular tachycardia/ventricular fibrillation (VT/VF) were recorded to evaluate the protective actions of drugs on myocardial injury.
On the basis of above screening results obtained from electrophysiological studies, and the result from comparative study on the research of the inhibitory effect of compounds on reverse mode Na^+/Ca^2+ exchange process, 7 effective compounds were subjected to in vitro study. Among which, IMM-313, IMM-004 and IMM-132 have structures containing chlorine; IMM-127, IMM-128 and IMM-129 have structures containing fluorine; and IMM-065 has a structure containing OH. The experiment performed in the isolated heart subjected to ischemia/reprefusion insult. Prolongation of ventricular arrhythmic, incidence of ventricular extrasystole, ventricular tachycardia/ventricular fibrillation (VT/VF) were recorded in order to evaluate the protective actions of drugs on myocardial injury.

[4] = screening of 22 candidate compounds
[5] = Example 1 table, myocardial cell
[6] = 0.3 mg/Kg intravenous (femoral vein)

inhibitory ratio on INa—Ca at −80 mV ([1]; 10 μM): 6% | inhibitory ratio on INa—Ca at +50 mV ([1]; 10 μM): 15% | inhibitory ratio on INa—Ca at −80 mV ([1]; 30 μM): 15% | inhibitory ratio on INa—Ca at +50 mV ([1]; 30 μM): 23% | inhibitory ratio on INa—Ca at −80 mV ([1]; 100 μM): 23% | inhibitory ratio on INa—Ca at +50 mV ([1]; 100 μM): 41% | effective concentration (significant inhibitory effect on reverse mode Na^+/Ca^2+ exchange) [1]: above 10^−5 mol·L^−1
Structure (SMILES): N=C(N)NC(=O)c1nc(Cl)c(N)nc1N [Amiloride, reference compound]

Structure (SMILES): O=c1c2ccccc2[se]n1-c1ccncc1 [IMM-001, 2-(4-pyridyl)-1,2-benzisoselenazol-3(2H)-one]
incidence and duration of VT, VF, VE / ventricular arrhythmic ([2]; 3 mg/Kg intravenous (femoral vein)): all reduced | inhibitory ratio on INa—Ca at −80 mV ([1]; 0.1 μM): 15% | inhibitory ratio on INa—Ca at +50 mV ([1]; 0.1 μM): 28% | inhibitory ratio on INa—Ca at −80 mV ([1]; 1 μM): 24% | inhibitory ratio on INa—Ca at +50 mV ([1]; 1 μM): 48% | inhibitory ratio on INa—Ca at −80 mV ([1]; 10 μM): 42% | inhibitory ratio on INa—Ca at +50 mV ([1]; 10 μM): 66% | selectivity of inhibition of outward versus inward INa—Ca [1]: high selectivity | effective concentration (significant inhibitory effect on reverse mode Na^+/Ca^2+ exchange) [1]: 10^−7 to 10^−5 mol·L^−1

Structure (SMILES): O=c1c2ccccc2[se]n1/C=C/C1N=CCN1 (stereo not drawn) [IMM-002, 2-[(3,4-dihydroimidazol-2-yl)-2-ethenyl]-1,2-benz-isoselenazol-3(2H)-one]
Inhibitory rate of inward INa—Ca (%) [1, 4]: 34% | Inhibitory rate of outward INa—Ca (%) [1, 4]: 32* %

Structure (SMILES): O=c1c2ccccc2[se]n1-c1cccc2cccnc12 [IMM-003, 2-(8-quinolinyl)-1,2-benz-isoselenazol-3(2H)-one]
Inhibitory rate of outward INa—Ca (%) [1, 4]: 22%

Structure (SMILES): O=c1c2ccccc2[se]n1-c1cccnc1 [IMM-030, 2-(3-pyridyl)-1,2-benzisoselenazol-3(2H)-one]
Inhibitory rate of inward INa—Ca (%) [1, 4]: 17% | Inhibitory rate of outward INa—Ca (%) [1, 4]: 12%

Structure (SMILES): O=c1c2ccccc2[se]n1Cc1ccccn1 [IMM-058, 2-(2-pyridylmethyl)-1,2-benz-isoselenazol-3(2H)-one]
Inhibitory rate of outward INa—Ca (%) [1, 4]: 3%

Structure (SMILES): O=c1c2ccccc2[se]n1Cc1ccco1 [IMM-059, 2-(2-furanylmethyl)-1,2-benz-isoselenazol-3(2H)-one]
Inhibitory rate of inward INa—Ca (%) [1, 4]: 15% | Inhibitory rate of outward INa—Ca (%) [1, 4]: 8%

Structure (SMILES): O=c1c2cc(Cl)ccc2[se]n1-c1cccnc1 [IMM-125, 5-chloro-2-(3-pyridyl)-1,2-benz-isoselenazol-3(2H)-one]
Inhibitory rate of inward INa—Ca (%) [1, 4]: 14% | Inhibitory rate of outward INa—Ca (%) [1, 4]: 35%

Structure (SMILES): O=c1c2cc(F)ccc2[se]n1-c1ccncc1 [IMM-129, 5-fluoro-2-(4-pyridyl)-1,2-benz-isoselenazol-3(2H)-one]
AAT: arrhythmic occurrence time, Time [3]: 23.67 ± 3.87 min | VF (ventricular fibrillation) Incidence rate (%) [3]: 63% | VPS (ventricular premature beats) Incidence rate (%) [3]: 37.5% | VT (ventricular tachycardia) Incidence rate (%) [3]: 75% | Inhibitory rate of inward INa—Ca (%) [1, 5]: 57% | Inhibitory rate of outward INa—Ca (%) [1, 5]: 59% | Inhibitory rate of inward INa—Ca (%) [1, 4]: 57* % | Inhibitory rate of outward INa—Ca (%) [1, 4]: 59* %

Structure (SMILES): O=c1c2cc(F)ccc2[se]n1-c1ccccc1 [IMM-130, 5-fluoro-2-phenyl-1,2-benz-isoselenazol-3(2H)-one]
Inhibitory rate of inward INa—Ca (%) [1, 4]: 43% | Inhibitory rate of outward INa—Ca (%) [1, 4]: 30%

Structure (SMILES): O=c1c2cc(Cl)ccc2[se]n1-c1ccccc1 [IMM-131, 5-chloro-2-phenyl-1,2-benz-isoselenazol-3(2H)-one]
Inhibitory rate of inward INa—Ca (%) [1, 4]: 15% | Inhibitory rate of outward INa—Ca (%) [1, 4]: 22%

Structure (SMILES): O=c1c2cc(Cl)ccc2[se]n1-c1ccncc1 [IMM-132, 5-chloro-2-(4-pyridyl)-1,2-benz-isoselenazol-3(2H)-one]
AAT: arrhythmic occurrence time, Time [3]: 29.13 ± 0.69 min | VF (ventricular fibrillation) Incidence rate (%) [3]: 85.7% | VPS (ventricular premature beats) Incidence rate (%) [3]: 28.6% | VT (ventricular tachycardia) Incidence rate (%) [3]: 85.7% | Inhibitory rate of inward INa—Ca (%) [1, 5]: 14% | Inhibitory rate of outward INa—Ca (%) [1, 5]: 44% | Inhibitory rate of inward INa—Ca (%) [1, 4]: 14% | Inhibitory rate of outward INa—Ca (%) [1, 4]: 44* %

Structure (SMILES): O=c1c2ccc(Cl)cc2[se]n1-c1cccnc1 [IMM-141, 6-chloro-2-(3-pyridyl)-1,2-benz-isoselenazol-3(2H)-one]
Inhibitory rate of inward INa—Ca (%) [1, 4]: 2%

Structure (SMILES): O=c1c2ccc(Cl)cc2[se]n1-c1ccccn1 [IMM-142, 6-chloro-2-(2-pyridyl)-1,2-benz-isoselenazol-3(2H)-one]
Inhibitory rate of inward INa—Ca (%) [1, 4]: 57% | Inhibitory rate of outward INa—Ca (%) [1, 4]: 46%

Structure (SMILES): O=c1c2cc(O)ccc2[se]n1-c1ccccn1 [IMM-163, 5-hydroxy-2-(2pyridyl)-1,2-benz-isoselenazol-3(2H)-one]
Inhibitory rate of inward INa—Ca (%) [1, 4]: 19% | Inhibitory rate of outward INa—Ca (%) [1, 4]: 14%

Structure (SMILES): O=c1c2cc(O)ccc2[se]n1-c1ccccc1 [IMM-164, 5-hydroxy-2-phenyl-1,2-benz-isoselenazol-3(2H)-one]
Inhibitory rate of inward INa—Ca (%) [1, 4]: 22% | Inhibitory rate of outward INa—Ca (%) [1, 4]: 8%

Structure (SMILES): CCCCC1OC(=O)c2cccc(-n3[se]c4ccccc4c3=O)c21 (stereo not drawn) [IMM-623, 2-[4-(7-n-butyl-benzo(1,2-c-di-hydrofuran-2-one))]-1,2-benz-isoselenazol-3(2H)-one]
Inhibitory rate of inward INa—Ca (%) [1, 4]: 15% | Inhibitory rate of outward INa—Ca (%) [1, 4]: 11%

inhibitory ratio on INa—Ca at −80 mV ([1]; 1 μM): 22% | inhibitory ratio on INa—Ca at +50 mV ([1]; 1 μM): 29% | inhibitory ratio on INa—Ca at −80 mV ([1]; 10 μM): 57% | inhibitory ratio on INa—Ca at +50 mV ([1]; 10 μM): 61% | selectivity of inhibition of outward versus inward INa—Ca [1]: without selectivity | selectivity of inhibition of outward versus inward INa—Ca ([1]; listed as KB-R794): poor selectivity
Structure (SMILES): N=C(N)SCCc1ccc(OCc2ccc([N+](=O)[O-])cc2)cc1 [KB-R7943, 2-[2-[4-(4-nitrobenzyloxy)phenyl]]isothiourea, reference compound]

Structure (SMILES): COc1ccc(CCN(C)CCCC(C#N)(c2ccc(OC)c(OC)c2)C(C)C)cc1OC (stereo not drawn) [Verapamil, reference compound]
incidence of VT, VF, VE and duration of arrhythmic [2, 6]: all reduced | latency of ventricular arrhythmic [2, 6]: significantly prolonged
